Results published in US12329158B2, “Large-scale methods of uniformly coating packaging surfaces with a volatile antimicrobial to preserve food freshness” (AGROFRESH INC., priority 2013, dated 2025).
≈ marks a conversion by molar mass, not a printed value.

Columns and labels:
Assay type in all cases: cell-based
Botrytis cinerea [1] = experiment: Volatile MIC assay (Example 10); conditions: 72 h, volatile treatment, 3 days at 23 C, read-out: MIC (mg/L) BOTRCI
Experimental: (§1) 12-Well (6.5 mL volume per well) microtiter plates are used for the in vitro inhibition assay for volatile antimicrobial compounds. A 3-mL volume of full-strength Potato Dextrose Agar (PDA) is added to each well. After cooling, 1 μL of 1×10^5 per mL Botrytis cinerea and Penicillium expansum spore suspension is spot-pipetted to the center of the agar. Plates are inoculated immediately prior to volatile fungicide treatment. A Whatman #1 filter disk (Cat. No. 1001-0155) is placed, in duplicate, on the underside of a polyethylene PCR plate sealing film. […] The headspace around the inoculum is then sealed inside the well by the film with the adhering disk containing the fungicide by inverting the plates over the treated disks and sealing to prevent any of the chemical from flaking from the disk and falling onto the inoculated agar. After 3 days of storage at 23° C., the cultures are evaluated for percent growth relative to control based on measurement of fungal colony diameter.

Penicillium expansum [2] = experiment: Volatile MIC assay (Example 10); conditions: 72 h, volatile treatment, 3 days at 23 C, read-out: MIC (mg/L) PENIEX
Experimental: as §1

Botrytis cinerea [3] = experiment: In vitro volatile assay (Example 24); conditions: 72 h, headspace, 100% control, 3 days at 23 C, read-out: Volatile MIC (mg/L) B. cinerea
Experimental: (§2) Volatile assay: 12-well (6.5 mL volume per well) microtiter plates are used. A 3-mL volume of half strength PDA is added to each well. […] A Whatman #1 filter disk (Cat. No. 1001-0155) is placed, in duplicate, on the underside of a polyethylene PCR plate sealing film. […] The acetone is permitted to evaporate for 5 minutes. The headspace around the inoculum is then sealed inside the well by the film with the adhering disk containing the fungicide. Plates are inverted, placed over the treated disks, and sealed to prevent any of the chemical from flaking from the disk and falling onto the inoculated agar. […] Contact assay: 6-well (16.5 mL volume per well) microtiter plates are used for an in vitro inhibition assay. […] A 7.5-mL volume of the amended media is added to each well of the microtiter plate. […] The plates are sealed with a clear film and incubated for 3 days at 23° C. After incubation, plates are evaluate for percent growth relative to acetone only control.

Penicillium expansum [4] = experiment: In vitro volatile assay (Example 24); conditions: 72 h, headspace, 100% control, 3 days at 23 C, read-out: Volatile MIC (mg/L) P. expansum
Experimental: as §2

B. cinerea = experiment: In vitro contact assay, amended agar (Example 24); conditions: Botrytis cinerea, 72 h; amended agar; 100% control; 3 days at 23 C; read-out: Contact MIC (mg/L) B. cinerea
Experimental: (§3) Contact assay: 6-well (16.5 mL volume per well) microtiter plates are used for an in vitro inhibition assay. […] A 7.5-mL volume of the amended media is added to each well of the microtiter plate. […] The plates are sealed with a clear film and incubated for 3 days at 23° C. After incubation, plates are evaluate for percent growth relative to acetone only control.

P. expansum = experiment: In vitro contact assay, amended agar (Example 24); conditions: Penicillium expansum, 72 h; amended agar; 100% control; 3 days at 23 C; read-out: Contact MIC (mg/L) P. expansum
Experimental: as §3

Botrytis cinerea [5] = experiment: Volatile MIC assay (Example 9); conditions: 72 h, headspace concentration, 3 days at 23 C, read-out: MIC (mg/L) BOTRCI
Experimental: (§4) A 3-mL volume of full-strength Potato Dextrose Agar (PDA) is added to each well. […] Plates are inoculated immediately prior to volatile fungicide treatment. A Whatman #1 filter disk (Cat. No. 1001-0155) is placed, in duplicate, on the underside of a polyethylene PCR plate sealing film. […] The acetone is permitted to evaporate for 5 minutes. The headspace around the inoculum is then sealed inside the well by the film with the adhering disk containing the fungicide by inverting the plates over the treated disks and sealing to prevent any of the chemical from flaking from the disk and falling onto the inoculated agar.

Penicillium expansum [6] = experiment: Volatile MIC assay (Example 9); conditions: 72 h, headspace concentration, 3 days at 23 C, read-out: MIC (mg/L) PENIEX
Experimental: as §4

Alternaria alternata = experiment: Volatile MIC assay (Example 9); conditions: 72 h, headspace concentration, 3 days at 23 C, read-out: MIC (mg/L) ALTEAL
Experimental: as §4

Monilinia fructicola = experiment: Volatile MIC assay (Example 9); conditions: 72 h, headspace concentration, 3 days at 23 C, read-out: MIC (mg/L) MONIFC
Experimental: as §4

Structure (SMILES): C=C(C)B1OCc2cc(F)ccc21 [Compound 137]
- MIC (Botrytis cinerea [1]): 0.3 mg/L (≈ 1.7 µM)
- MIC (Penicillium expansum [2]): 1.1 mg/L (≈ 6.25 µM)

Structure (SMILES): OB1OCc2cccc(F)c21 [Compound 203]
- MIC (Botrytis cinerea [1]): 8.9 mg/L (≈ 58.6 µM)
- MIC (Penicillium expansum [2]): 143 mg/L (≈ 941 µM)

Structure (SMILES): OB1OCc2cc(Cl)ccc21 [Compound 124]
- MIC (Botrytis cinerea [3]): 4.5 mg/L (≈ 26.7 µM)
- MIC (Penicillium expansum [4]): 8.9 mg/L (≈ 52.9 µM)
- MIC (B. cinerea): 2 mg/L (≈ 11.9 µM)
- MIC (P. expansum): 2 mg/L (≈ 11.9 µM)
- MIC (Botrytis cinerea [1]): 4.5 mg/L (≈ 26.7 µM)
- MIC (Penicillium expansum [2]): 8.9 mg/L (≈ 52.9 µM)

Structure (SMILES): COCCOB1OCc2cc(F)ccc21 [Compound 38]
- MIC (Botrytis cinerea [1]): 0.6 mg/L (≈ 2.86 µM)
- MIC (Penicillium expansum [2]): 8.9 mg/L (≈ 42.4 µM)

Structure (SMILES): C=CB1OCc2cc(F)ccc21 [Compound 129]
- MIC (Botrytis cinerea [1]): 4.5 mg/L (≈ 27.8 µM)
- MIC (Penicillium expansum [2]): 8.9 mg/L (≈ 54.9 µM)

Structure (SMILES): NCCOB1OCc2ccccc21 [Compound 21]
- MIC (Botrytis cinerea [1]): 1.1 mg/L (≈ 6.21 µM)
- MIC (Penicillium expansum [2]): 35.7 mg/L (≈ 202 µM)

Structure (SMILES): OCCOCCOB1OCc2cc(F)ccc21 [Compound 62]
- MIC (Botrytis cinerea [1]): 2.2 mg/L (≈ 9.17 µM)
- MIC (Penicillium expansum [2]): 8.9 mg/L (≈ 37.1 µM)

Structure (SMILES): N#C[B-]1(O)OCc2cc(F)ccc21.[Na+] (centres unmarked) [Compound 132]
- MIC (Botrytis cinerea [3]): 1.1 mg/L
- MIC (Penicillium expansum [4]): 4.5 mg/L
- MIC (B. cinerea): 2 mg/L
- MIC (P. expansum): 2 mg/L

Structure (SMILES): CC(C)(N)COB1OCc2cc(F)ccc21 [Compound 115]
- MIC (Botrytis cinerea [1]): 0.6 mg/L (≈ 2.69 µM)
- MIC (Penicillium expansum [2]): 8.9 mg/L (≈ 39.9 µM)

Structure (SMILES): Fc1cccc(B2OCc3cc(F)ccc32)c1 [Compound 134]
- MIC (Botrytis cinerea [1]): 17.9 mg/L (≈ 77.8 µM)
- MIC (Penicillium expansum [2]): > 35.7 mg/L

Structure (SMILES): OCCOCCOCCOB1OCc2cc(F)ccc21 [Compound 55]
- MIC (Botrytis cinerea [1]): 4.5 mg/L (≈ 15.8 µM)
- MIC (Penicillium expansum [2]): > 35.7 mg/L

Structure (SMILES): COc1ccc(B2OCc3cc(F)ccc32)cc1 [Compound 135]
- MIC (Botrytis cinerea [3]): 17.9 mg/L (≈ 73.9 µM)
- MIC (Penicillium expansum [4]): > 35.7 mg/L
- MIC (B. cinerea): 2 mg/L (≈ 8.26 µM)
- MIC (P. expansum): 2 mg/L (≈ 8.26 µM)
- MIC (Botrytis cinerea [1]): 17.9 mg/L (≈ 73.9 µM)
- MIC (Penicillium expansum [2]): > 35.7 mg/L

Structure (SMILES): NCCOB1OCc2cc(F)ccc21 [Compound 34]
- MIC (Botrytis cinerea [3]): 0.6 mg/L (≈ 3.08 µM)
- MIC (Penicillium expansum [4]): 2.2 mg/L (≈ 11.3 µM)
- MIC (Botrytis cinerea [5]): < 0.6 mg/L
- MIC (Penicillium expansum [6]): 2.2 mg/L (≈ 11.3 µM)
- MIC (Alternaria alternata): 2.2 mg/L (≈ 11.3 µM)
- MIC (B. cinerea): 2 mg/L (≈ 10.3 µM)
- MIC (P. expansum): 0.4 mg/L (≈ 2.05 µM)

Structure (SMILES): CN(CCO)CCOB1OCc2cc(F)ccc21 [Compound 72]
- MIC (Botrytis cinerea [1]): 35.7 mg/L (≈ 141 µM)
- MIC (Penicillium expansum [2]): > 35.7 mg/L

Structure (SMILES): COc1cccc(B2OCc3cc(F)ccc32)c1 [Compound 136]
- MIC (Botrytis cinerea [1]): 8.9 mg/L (≈ 36.8 µM)
- MIC (Penicillium expansum [2]): > 35.7 mg/L

Structure (SMILES): OCCNCCOB1OCc2cc(F)ccc21 [Compound 73]
- MIC (Botrytis cinerea [1]): 35.7 mg/L (≈ 149 µM)
- MIC (Penicillium expansum [2]): > 35.7 mg/L

Structure (SMILES): CCCCOB1OCc2cc(F)ccc21 [Compound 30]
- MIC (Botrytis cinerea [5]): 2.2 mg/L (≈ 10.6 µM)
- MIC (Penicillium expansum [6]): 8.9 mg/L (≈ 42.8 µM)
- MIC (Alternaria alternata): 2.2 mg/L (≈ 10.6 µM)
- MIC (Monilinia fructicola): 2.2 mg/L (≈ 10.6 µM)

Structure (SMILES): O[B@@-]1([NH2+]Cc2ccccc2)OCc2ccccc21 [Compound 121]
- MIC (Botrytis cinerea [3]): 4.5 mg/L (≈ 18.7 µM)
- MIC (Penicillium expansum [4]): 17.9 mg/L (≈ 74.2 µM)
- MIC (B. cinerea): 10 mg/L (≈ 41.5 µM)
- MIC (P. expansum): 10 mg/L (≈ 41.5 µM)
- MIC (Botrytis cinerea [1]): 4.5 mg/L (≈ 18.7 µM)
- MIC (Penicillium expansum [2]): 17.9 mg/L (≈ 74.2 µM)

Structure (SMILES): CN(C)CCOB1OCc2ccccc21 [Compound 22]
- MIC (Botrytis cinerea [1]): 4.5 mg/L (≈ 21.9 µM)
- MIC (Penicillium expansum [2]): 35.7 mg/L (≈ 174 µM)
